Assay results published in patent publication EP2123328A1 (priority 2008, dated 2009).
Read-outs that look alike come from different tables or passages of the source.

Tests used:
acetylcholinesterase = biological target: T1, acetylcholinesterase (Homo sapiens, UniProt P22303); assay: biochemical
T1 construct: purchased Sigma
Method: Acetylcholine iodide was used as substrate. Acetylcholinesterase is a commercial product (Sigma). […] After stirring, 1 EU acetylcholinesterase was added. […] Each test was repeated 3 times. The test substances was dissolved in 50% ethyl alcohol.

butyrylcholinesterase = biological target: T2, butyrylcholinesterase (Homo sapiens, UniProt P06276); assay: biochemical
T2 construct: purchased Sigma
T2 sequence (P06276 29-602): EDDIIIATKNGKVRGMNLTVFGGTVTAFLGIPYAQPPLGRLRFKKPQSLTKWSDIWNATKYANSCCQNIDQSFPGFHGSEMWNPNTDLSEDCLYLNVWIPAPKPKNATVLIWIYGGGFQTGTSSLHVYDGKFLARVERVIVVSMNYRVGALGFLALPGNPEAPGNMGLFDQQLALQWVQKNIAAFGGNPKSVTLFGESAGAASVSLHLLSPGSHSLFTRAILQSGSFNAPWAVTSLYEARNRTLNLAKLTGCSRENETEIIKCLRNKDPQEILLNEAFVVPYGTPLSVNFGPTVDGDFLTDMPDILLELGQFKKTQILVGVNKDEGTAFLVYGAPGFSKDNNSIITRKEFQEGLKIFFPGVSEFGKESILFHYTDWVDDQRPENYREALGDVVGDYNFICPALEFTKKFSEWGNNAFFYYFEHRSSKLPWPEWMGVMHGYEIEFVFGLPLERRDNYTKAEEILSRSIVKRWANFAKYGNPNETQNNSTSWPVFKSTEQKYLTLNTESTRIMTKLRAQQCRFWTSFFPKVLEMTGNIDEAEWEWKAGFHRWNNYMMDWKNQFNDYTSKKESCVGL
Method: In studying the inhibitory effect of the compounds according to the invention, a modified Elman's method was used. Butyrylcholine iodide was used as substrate. Butyrylcholinesterase is a commercial product (Sigma). Enzyme activity determination was performed in 0,1 M sodium phosphate buffer pH 8,0 at 25 °C. To 1 ml of the buffer, 90 mcl (7,5 MM) butyrylcholine iodide and 45 mcl (10 MM) 5,5'-ditiobis-2-nitrobenzoic acid (DTNB) were added. After stirring, 1 EU butyrylcholinesterase was added. The enzyme reaction was monitored according to the change of absorption at 412 nm in a period of 2 to10 min. The speed of the enzyme reaction was calculated in M/l.sec, using an absorption coefficient of 14,15 .10^3 1/M.cm (Eyer). Each test was repeated 3 times. The substances under study were dissolved in 50% ethyl alcohol. To trace the inhibiting effect, the compounds under study were added in different concentrations to 1,5 ml of phosphate buffer and 1 EU enzyme. They were incubated for 30 min at 25 °C, then butyrylcholine iodide and DTNB were added and the course of the enzyme reaction was monitored according to the description above. […] After a preliminary screening, such concentrations of the test substances were selected that have an inhibiting effect between 20 and 80%. To determine the inhibition constant (Ki), minimum 3 different concentrations of the test compounds under study were used. The inhibition curves for each selected concentration of the inhibitor were made using the method of double reciprocal values (Lineweaver, Burk), substrate concentration being within 90 - 3300 .10^-6 M/l. IC50 values were determined using the log-probit method. The calculations were made using the matlab6 program. IC50 values were made on the basis of experimental data obtained for different concentrations of the compounds manifesting inhibitory activity.

γ-secretase = biological target: T3, γ-secretase (Homo sapiens, UniProt P49768); assay: Inhibitory effect on γ-secretase: ELISA of human β-amyloid in the cell medium of APP751-expressing HEK293 cells; format: cell-based; conditions: for quantity of amyloid β: concentration 0,02 µM; for quantity of amyloid β / γ-Secretase effect: figure 3; for γ-Secretase effect: concentration 2 µM, compared with DAPT; for concentrations at which the substances have γ-secretase activity / decrease of β-amyloid quantity in the cell medium: tested at 0,02, 0,2 and 2 µM, Figure 2
T3 construct: endogenous in cells; host or cells: HEK293 cells stably expressing APP751
Method: To a solution of norgalanthamine hydrochloride (0.42 g 1.3560 mmol) in DMF under cooling Et3N (0.19 ml 1.3520 mmol) and N-(3,4-dichlorophenyl)-alanyl-valine (0.50 g 1.5009 mmol) and N-cyclohexyl-N-[β-(N-methylformolino)-ethyl-] carbodiimide (0.64 g 1.5109 mmol) was added. The reaction mixture was stirred for 24 hours at room temperature and the end of reaction was monitored in a system of n-BuOH:AcOH:H2O= 3:1:1 To the reaction mixture 5 % NaHCO3 was add, followed by precipitate formation. The precipitate was washed by suspending in 5 % NaHCO3 and H2O. […] 137-141 °C, yield 37 %, chromatographically pure in a system of CHCl3:MeOH=9:1 and n-BuOH:AcOH:H2O= 3:1:1. IR [cm^-1]: 3384, 3062, 3028, 2930, 1640, 1599, 1280, 1240, 1059, 753, 701. HPLC: Rt= 2.58 and 2.76 min for S and R isomers. 1H NMR (CDCl3, ppm ) δ: 7.10-7.30 (2H, NH), 7.0-6.20 (10H, 5H Ph + H9', H10'+ 3H PhCl), 6.0 (m, 2H, H4', H5'), 4.7-4.4 (m, 4H, CH2NCH2), 4.5 (m, 1H, H1'), 4.14 (m, 1H, H3'), 3.85 (s, 3H, O-CH3), 3.90 (m, 1H, CHCH2Ph), 3.75 (q, 1H, CHCH3), 3.20 (m, 1H, CHCH2Ph), 2.70 (d, J=15.9 Hz, 1H, H2a'), 2.02 (d, J=15.9 Hz, 1H, H2b'), 1.90 (m, CH2), 1.30 (d, , 3H, CHCH3). Elemental analysis - nitrogen determination: C34H36N3Cl2O5, M.M= 636.54 theoretical 6.60 % N, calculated 6.62 % N. Mass spectrometry: C34H36N3Cl2O5, M.M= 636.20 found [M+H]^+=636.55. […] 133-138 °C, yield 35 %, chromatographically pure in a system of CHCl3:MeOH=9:1 and n-BuOH:AcOH:H2O= 3:1:1. IR [cm^-1]: 3338, 2963, 2931, 2874, 1656, 1630, 1599, 1382, 1373, 1279, 1214, 1059. HPLC: Rt= 2.35 and 2.53 min for S and R isomers. 1H NMR (CDCl3, ppm) δ: 7.10-7.30 (2H, NH), 7.0-6.20 (5H, H9', H10', 3H PhCl), 5.90 (m, 2H, H4', H5'), 4.7-4.4 (m, 4H, CH2NCH2), 4.5 (m, 1H, H1'), 4.15 (m, 1H, H3'), 3.86 (s, 3H, O-CH3), 3.85 (m, 1H, H2), 3.75 (q, 1H, CHCH3), 3.20 (m, 1H), 2.70 (d, J=15.9 Hz, 1H, H2a'), 2.40 (m, 1H, CH(CH3)2), 2.02 (d, J=15.9 Hz, 1H, H2b'), 1.90 (m, CH2), 1.30 (d, 3H, CHCH3), 0.80 (d, 6H, 2 x CH3). Elemental analysis - nitrogen determination: C29H33N3Cl2O5, M.M= 588.41 calculated 7.14 % N, found 6.98 % N. Mass spectrometry: C29H33N3Cl2O5, M.M= 587.20 found [M+H]^+=588.45. Example 14 The study of inhibitory effect on γ-secretase of the compounds under the inventions took place on expressing APP751 HEK293 cells using the following methods: (1) cell cultivation of expressing APP751 HEK293 cells, and (2) ELISA (solid-phase sandwich enzyme-linked immunosorbent assay) of human β-amyloid protein. HEK293 cells were cultivated in Dulbecco's modified Eaglr's medium (Applichem, Germany) with added 10% fetal calf serum (Biowhittaker, USA) and 200 U/ml Penicillin and […] Streptomycin (Applichem, Germany) at 37°C and 5% CO2. ELISA kits of human β-amyloid are intended for in vitro quantitative determination of a native or recombinant β-amyloid in serum, supernatant of cell cultures or other biological samples. In short, a monoclonal antibody specific for the amino end of β-amyloid was immobilized for a 96-pit plate. β-amyloid antigen from the standards or from the samples was connected with this first antibody. Then a second antibody was placed for detection of the specific β-amyloid 1 - 42. An anti-rabbit antibody IgG-HRP completed the sandwich. The reaction was visualized by means of 3,3",5,5"-tetramethylbenzidine (TMB) substrate, following by a stop solution. Yellow colour intensity was in direct proportion to the concentration of β-amyloid in the original sample. The sensitivity of these ELISA was < 10 pg/ml β-amyloid. ELISA method was used to study the inhibitory effect on γ-secretase of the compounds obtained according to the invention on expressing APP751 HEK293 cells. The following abbreviations were used: • 1. 6-O-N-[N- (3,4-dichlorophenyl)-D,L-alanyl]-glycil-galanthamine - AG-GAL • 2. […] 6-O-N-[N- (3,4-dichlorophenyl)-D,L-alanyl]-L-leucil-glycil-galanthamine - ALG-GAL • 4. 6-O-N-[N- (3,4-dichlorophenyl)-D,L-alanyl]-L-valyl-glycil-galanthamine - AVG-GAL • 5. N-(3,4-dichlorophenyl)-D,L-alanyl-L-phenylalanine - AF • 6. […]

[1] = 0,1 M sodium phosphate buffer pH 8,0, 25 °C, 30 min preincubation, acetylcholine iodide substrate, read-out: IC50
[2] = 0,1 M sodium phosphate buffer pH 8,0, 25 °C, 30 min preincubation, butyrylcholine iodide substrate, read-out: IC50

T1 sequence (P22303 32-614, species assumed): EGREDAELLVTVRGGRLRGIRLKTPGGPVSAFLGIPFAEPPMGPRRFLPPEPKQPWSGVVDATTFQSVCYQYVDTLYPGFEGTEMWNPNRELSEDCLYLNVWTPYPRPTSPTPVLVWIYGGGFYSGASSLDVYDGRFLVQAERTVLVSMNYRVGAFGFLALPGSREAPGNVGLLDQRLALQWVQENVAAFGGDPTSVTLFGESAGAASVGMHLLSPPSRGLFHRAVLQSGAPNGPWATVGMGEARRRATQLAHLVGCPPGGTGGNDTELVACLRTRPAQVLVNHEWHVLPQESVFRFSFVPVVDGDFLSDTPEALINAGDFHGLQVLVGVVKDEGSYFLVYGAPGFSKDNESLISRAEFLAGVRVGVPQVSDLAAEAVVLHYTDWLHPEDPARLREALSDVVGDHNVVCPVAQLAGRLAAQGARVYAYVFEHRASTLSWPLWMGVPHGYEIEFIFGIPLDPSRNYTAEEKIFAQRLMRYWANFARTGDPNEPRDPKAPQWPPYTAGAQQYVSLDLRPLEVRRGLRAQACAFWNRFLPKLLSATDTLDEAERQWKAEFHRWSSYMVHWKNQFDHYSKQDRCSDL

Row | SMILES | γ-Secretase effect (γ-secretase) | IC50 (acetylcholinesterase; [1]) | IC50 (butyrylcholinesterase; [2]) | further results
1 | COc1ccc2c3c1O[C@H]1C[C@@H](OC(=O)CNC(=O)C(C)Nc4ccc(Cl)c(Cl)c4)C=C[C@@]31CCN(C)C2 (stereo partly drawn) [Compound 1, 6-O-N-[N-(3,4-dichlorophenyl)-D,L-alanyl]-glycil-galanthamine] | no inhibitory effect | – | – | IC50 (acetylcholinesterase): 3.98 µM; IC50 (butyrylcholinesterase): 23.7 µM; quantity of amyloid β (γ-secretase): decreased significantly
2 | CC(Nc1ccc(Cl)c(Cl)c1)C(=O)N[C@@H](Cc1ccccc1)C(=O)O (mixture of isomers) [AF, N-(3,4-dichlorophenyl)-D,L-alanyl-L-phenylalanine] | comparable with the effect of DAPT | – | – | –
3 | COc1ccc2c3c1OC1CC(O)C=CC31CCN(C(=O)C(NC(=O)C(C)Nc1ccc(Cl)c(Cl)c1)C(C)C)C2 [Compound 6, 11-N-demethyl-11-N-N-[N-(3,4-dichlorophenyl)-D,L-alanyl]-L-valyl-galanthamine] | – | 31.2 µM | 0.603 µM | –
4 | COc1ccc2c3c1OC1CC(OC(=O)CNC(=O)C(CC(C)C)NC(=O)C(C)Nc4ccc(Cl)c(Cl)c4)C=CC31CCN(C)C2 [Compound 3, 6-O-N-[N-(3,4-dichlorophenyl)-D,L-alanyl]-L-leucil-glycil-galanthamine] | comparable with the effect of DAPT | 3.35 µM | 0.612 µM | quantity of amyloid β (γ-secretase): decreased significantly
5 | COc1ccc2c3c1O[C@H]1C[C@@H](O)C=C[C@@]31CCN(C(=O)[C@H](Cc1ccccc1)NC(=O)C(C)Nc1ccc(Cl)c(Cl)c1)C2 (stereo partly drawn) [Compound 5, 11-N-demethyl-11-N-N-[N-(3,4-dichlorophenyl)-D,L-alanyl]-L-phenylalanyl-galanthamine] | – | – | – | IC50 (acetylcholinesterase): 12.5 µM; IC50 (butyrylcholinesterase): 0.447 µM
6 | C[C@H](NC(=O)Cc1cc(F)cc(F)c1)C(=O)N[C@H](C(=O)OC(C)(C)C)c1ccccc1 [DAPT, N-[N-(3,5-difluorophenylacetyl)-L-alanyl]-S-phenylglycin tertiary butyl ester, reference compound] | – | – | – | concentrations at which the quantity of β amyloid is decreased by inhibiting γ-secretase activity (γ-secretase; 6 hours incubation, serum-free medium, figure 1): higher than 160 nM
7 | COc1ccc2c3c1OC1CC(OC(=O)CNC(=O)C(Cc4ccccc4)NC(=O)C(C)Nc4ccc(Cl)c(Cl)c4)C=CC31CCN(C)C2 [Compound 2, 6-O-N-[N-(3,4-dichlorophenyl)-D,L-alanyl]-L-phenylalanyl-glycil galanthamine] | – | 3.76 µM | 10 µM | –
8 | CC(C)C[C@H](NC(=O)C(C)Nc1ccc(Cl)c(Cl)c1)C(=O)O (mixture of isomers) [AL, N-(3,4-dichlorophenyl)-D,L-alanyl-L-leucine] | – | – | – | concentrations at which the substances have γ-secretase activity (γ-secretase; 6 hours incubation): higher than 0,02 µM; decrease of β-amyloid quantity in the cell medium (γ-secretase; 6 hours incubation): significant decrease
9 | COc1ccc2c3c1OC1CC(OC(=O)CNC(=O)C(NC(=O)C(C)Nc4ccc(Cl)c(Cl)c4)C(C)C)C=CC31CCN(C)C2 [Compound 4, 6-O-N-[N-(3,4-dichlorophenyl)-D,L-alanyl]-L-valyl-glycil-galanthamine] | – | 8.33 µM | 0.335 µM | concentrations at which the substances have γ-secretase activity (γ-secretase; 6 hours incubation): higher than 0,02 µM; decrease of β-amyloid quantity in the cell medium (γ-secretase; 6 hours incubation): significant decrease
